Five compounds from ChEMBL document CHEMBL1201862, “PubChem BioAssay data set” (2004) can be followed below.

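Grown in 96-well plates, cells were treated for 48 hours with each compound at five concentrations. Insufficient inhibition: endpoint recorded as highest concentration tested. GI50 = concentration required for 50% inhibition of growth.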 Calls of active or inactive are those of the source. No stated cut-off is given here; in the data, active = GI50 up to about 1.1 µM and inactive = higher.

Test systems include 786-0; CAKI-1; DLD-1; HCC 2998; HOP-62; HOP-92; MDA-MB-435; MDA-N; NCI-H23; NCI-H460; OVCAR-4; OVCAR-5; SK-MEL-5; SNB-75; SR; T47D; U-251; UACC-257; UACC-62; UO-31.
Test in all cases: NCI tumour cell line growth inhibition, 48 h

Regarding `C=CC/C=C/Cc1csc(C(C)(C)C(O)C/C=C/C(=C)CCNC(=O)OC)n1` (stereo not given), the GI50 in the assay with 786-0 was > 100 µM (inactive); in the assay with CAKI-1, > 67 µM (inactive); in the assay with DLD-1 it was 83.4 µM (inactive); with HCC 2998 it was > 95.3 µM (inactive); in the assay on HOP-62, > 100 µM (inactive); in the assay with HOP-92 it was 20.6 µM (inactive). The GI50 in the assay with MDA-MB-435 was 49.7 µM (inactive); with MDA-N it was 45.8 µM (inactive); in the assay on NCI-H23, 0.245 µM (active); in the assay on NCI-H460, 29.5 µM (inactive); in the assay on OVCAR-4, > 57.3 µM (inactive); with OVCAR-5, > 100 µM (inactive). Besides, the GI50 in the assay on SK-MEL-5 is 1.17 µM (inactive); in the assay on SNB-75, 43 µM (inactive); in the assay on SR, 0.492 µM (active); with T47D, > 100 µM (inactive); in the assay with U-251 it was 74.5 µM (inactive); in the assay with UACC-257, 1.49 µM (inactive). Moreover, the GI50 is 44.4 µM (inactive) in the assay on UACC-62 and > 71.3 µM (inactive) in the assay on UO-31.
Regarding `Cc1cccc(C)c1NC(=O)/C(Cl)=C(/Cl)C(=O)O`, the GI50 with 786-0 is 17.1 µM (inactive); in the assay on CAKI-1, 7.66 µM (inactive); in the assay with DLD-1, 7.28 µM (inactive); in the assay with HCC 2998, 18 µM (inactive); with HOP-62, > 62.2 µM (inactive); in the assay on HOP-92, 15.5 µM (inactive). Moreover, the GI50 is 21.9 µM (inactive) in the assay on MDA-MB-435; 19.2 µM (inactive) in the assay with MDA-N; 19.1 µM (inactive) in the assay with NCI-H23; 30.8 µM (inactive) in the assay with NCI-H460; 18.5 µM (inactive) in the assay with OVCAR-4; 20.4 µM (inactive) in the assay on OVCAR-5. Further, the GI50 with SK-MEL-5 is 19.9 µM (inactive); in the assay with SNB-75, 20.2 µM (inactive); in the assay on SR, 8.41 µM (inactive); with T47D, 27.9 µM (inactive); with U-251, 21.1 µM (inactive); in the assay with UACC-257 it was 16.1 µM (inactive). In addition, the figures for the GI50 with UACC-62 and in the assay with UO-31 were 13.7 µM (inactive) and 14.8 µM (inactive), respectively.
Regarding `Cc1cccc(C(C)(C)C)c1NC(=O)C(C#N)C1=C(Cl)C(=O)c2ccccc2C1=O` (stereo not given), the GI50 in the assay with 786-0 is 16.2 µM (inactive); in the assay with CAKI-1, 16.7 µM (inactive); with DLD-1, 14.4 µM (inactive); with HCC 2998, 15.7 µM (inactive); in the assay on HOP-62 it was 17.7 µM (inactive); in the assay on HOP-92, 3.93 µM (inactive). Also, the GI50 was 16.7 µM (inactive) in the assay on MDA-MB-435; 14.4 µM (inactive) in the assay with MDA-N; 15.8 µM (inactive) in the assay with NCI-H23; 19.2 µM (inactive) in the assay with NCI-H460; 15.4 µM (inactive) in the assay with OVCAR-4; 17.9 µM (inactive) in the assay with OVCAR-5. Besides, the GI50 is 17 µM (inactive) with SK-MEL-5; 13.7 µM (inactive) in the assay with SNB-75; 3.38 µM (inactive) in the assay with SR; 9.95 µM (inactive) with T47D; 16.9 µM (inactive) in the assay on U-251; 15.6 µM (inactive) with UACC-257. Moreover, the GI50 with UACC-62 was 18.2 µM (inactive); with UO-31, 14.7 µM (inactive).
Take `Clc1ccc2ns[s+]c2c1`: the GI50 in the assay with 786-0 is 53.8 µM (inactive); with CAKI-1, 1.63 µM (inactive); in the assay with DLD-1 it was 0.625 µM (active); with HCC 2998 it was 17.5 µM (inactive); in the assay on HOP-62 it was 4.32 µM (inactive); in the assay on HOP-92 it was 22.5 µM (inactive). Besides, the GI50 in the assay on MDA-MB-435 was 0.334 µM (active); in the assay on MDA-N, 3.4 µM (inactive); with NCI-H23 it was 11.7 µM (inactive); with NCI-H460 it was 5.83 µM (inactive); in the assay with OVCAR-4 it was 22.4 µM (inactive); with OVCAR-5, 6.58 µM (inactive). The GI50 with SK-MEL-5 was 15.5 µM (inactive); with SNB-75 it was > 79.3 µM (inactive); in the assay on SR, 1.34 µM (inactive); with T47D, 11.7 µM (inactive); in the assay on U-251 it was 18.3 µM (inactive); with UACC-257, 14.5 µM (inactive). The GI50 was 0.275 µM (active) in the assay with UACC-62 and 6.44 µM (inactive) in the assay on UO-31.
With `NC(=O)NO` [HYDROXYUREA], the GI50 in the assay on 786-0 is 303 µM (inactive); in the assay on CAKI-1, 270 µM (inactive); in the assay with DLD-1, 1450 µM (inactive); in the assay with HCC 2998 it was 679 µM (inactive); with HOP-62, 904 µM (inactive); with HOP-92, 895 µM (inactive). Also, the GI50 is 2000 µM (inactive) with MDA-MB-435; 1940 µM (inactive) with MDA-N; 710 µM (inactive) with NCI-H23; 344 µM (inactive) with NCI-H460; 1850 µM (inactive) in the assay on OVCAR-4; 601 µM (inactive) with OVCAR-5. Besides, the GI50 in the assay on SK-MEL-5 is 507 µM (inactive); with SNB-75, 817 µM (inactive); in the assay on SR, 217 µM (inactive); in the assay with T47D, 1490 µM (inactive); in the assay on U-251 it was 581 µM (inactive); in the assay with UACC-257, 1810 µM (inactive). Moreover, the GI50 with UACC-62 was 291 µM (inactive); in the assay on UO-31, 508 µM (inactive).
